According to patent US20200188431A1, “GLUTAMINE DEHYDROGENASE INHIBITORS FOR USE IN MUSCLE REGENERATION” (VIB VZW, priority 2017, published 2020):

Assays:
[1] = biological target: T1, glutamine transporter SLC1A5 (Mus musculus, UniProt P51912); assay: CTX muscle injury with SLC1A5 inhibition by GPNA, proliferating muscle precursors; assay type: in vivo, mice; set-up: from tissue; host or cells: living CTRL and Glud1 ΔMo mice (C57BL/6); read-out in tibialis anterior muscle; conditions: Glud1ΔMo TA muscles 1 day after CTX injury; GPNA 3 times per day, oral, vs vehicle
T1 sequence (P51912 1-553): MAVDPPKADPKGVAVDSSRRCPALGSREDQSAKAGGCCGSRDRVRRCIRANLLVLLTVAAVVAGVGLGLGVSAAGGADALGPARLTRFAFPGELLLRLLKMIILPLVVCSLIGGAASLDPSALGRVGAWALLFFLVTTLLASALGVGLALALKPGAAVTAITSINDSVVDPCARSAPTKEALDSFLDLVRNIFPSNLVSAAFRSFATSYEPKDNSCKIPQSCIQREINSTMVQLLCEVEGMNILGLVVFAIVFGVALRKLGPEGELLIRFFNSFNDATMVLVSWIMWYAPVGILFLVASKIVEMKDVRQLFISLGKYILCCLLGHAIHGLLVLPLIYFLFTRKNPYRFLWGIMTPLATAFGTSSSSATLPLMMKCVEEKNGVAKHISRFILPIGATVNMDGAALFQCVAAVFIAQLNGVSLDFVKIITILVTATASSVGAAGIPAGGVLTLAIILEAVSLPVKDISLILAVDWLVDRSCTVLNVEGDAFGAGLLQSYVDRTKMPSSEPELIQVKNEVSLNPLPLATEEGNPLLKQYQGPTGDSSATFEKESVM
Experimental: m: Quantification of proliferating muscle precursors on sections of TA muscles 1 day after CTX injury, stained for PHH3 and laminin. CTRL and Glud1^ΔM0 mice were treated 3 times per day with the SLC1A5 inhibitor GPNA, or vehicle as control. Number of samples included in the analysis: CTRL with vehicle, n=5; Glud1^ΔMo with vehicle, n=5; CTRL with GPNA, n=8; Glud1^ΔMo with GPNA, n=8.
(§1) Mice were anaesthetized with isoflurane and 50 μl of 10 μM CTX was injected in the tibialis anterior (TA) muscle. Muscles were harvested for analysis at different time points post-injury (day 1 and day 6). In vivo GLUD1 inhibition was achieved by bi-daily gavage of R162 (Focus Biomolecules) at 0.6 mg/mouse. Mice were pretreated 1 day before CTX injection or ischemic ligation. Afterwards, mice continued to receive daily treatment until their sacrifice. To inhibit SLC1A5, mice were treated 3 times per day with 500 mM GPNA (Sigma-Aldrich). […]
(§2) 7 μm-thick cryosections were obtained by using a Leica cryostat from frozen muscles collected in optimal cutting temperature compound (OCT). […] Necrotic and regenerating muscle fibers, were detected by H&E staining as previously described (Takeda et al. 2011, Nature 479:122-126) and analysed by ImageJ software. […] Whenever sections were stained in fluorescence, ProLong Gold mounting medium with or without DAPI (Invitrogen) was used. […]

[2] = biological target: T1, glutamine transporter SLC1A5; assay: [U-14C]-glutamine uptake in C2C12 cells; assay type: cell-based, murine; set-up: endogenous in cells; host or cells: C2C12 myoblast cell line
Experimental: e: [U-^14C]-glutamine uptake in SLC1A5-deficient C2C12 cells obtained by co-expressing the Cas9 along with a gRNA targeting the Slc1a5 locus. Wild type cells (Ctrl) and a non-targeting scrambled (Scrl) gRNA were used as negative controls. C2C12 cells treated with SLC1A5 inhibitor gamma-L-Glutamyl-p-Nitroanilide (GPNA) was used as a positive control.
BMDMs were incubated in M199 medium (Gibco) supplemented with 10% FBS and 0.5 μCi/ml [U-^14C]-glutamine for 30 min at 37° C. Cells were lysed in 1N NaOH and the radioactivity was measured by liquid scintillation counting.

[3] = biological target: glutamine synthetase (GS) (Mus musculus, UniProt P15105); conditions: GLUD1-deficient BMDMs, glutamine deprivation, 1 mM MSO for 48 hours
glutamine synthetase (GS), sequence (P15105 2-373 limits assumed): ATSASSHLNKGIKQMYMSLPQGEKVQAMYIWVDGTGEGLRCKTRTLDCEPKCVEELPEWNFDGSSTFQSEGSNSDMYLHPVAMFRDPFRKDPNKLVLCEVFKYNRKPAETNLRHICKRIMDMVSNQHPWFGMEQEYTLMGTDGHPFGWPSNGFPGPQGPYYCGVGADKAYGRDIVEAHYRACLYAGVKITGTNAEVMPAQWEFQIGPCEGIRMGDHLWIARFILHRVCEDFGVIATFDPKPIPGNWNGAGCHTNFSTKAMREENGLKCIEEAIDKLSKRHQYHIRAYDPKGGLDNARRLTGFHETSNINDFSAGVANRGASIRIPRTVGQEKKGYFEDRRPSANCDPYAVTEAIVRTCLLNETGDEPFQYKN
Experimental: o: Quantification (by GC-MS) of extracellular glutamine content from BMDMs under glutamine deprivation treated with and without MSO.
Briefly, bone marrow cells (1.6×10^6 cells/ml) were cultured in a volume of 6 ml in a 10 cm Petri dish in DMEM supplemented with 20% FBS and 30% L929 conditioned medium as a source of M-CSF. After 3 days of culture, an additional 3 ml of differentiation medium was added. At day 7, macrophages were harvested with ice cold Ca2^+ and Mg2^+-free PBS. The cells obtained were uniformly macrophages as assessed by FACS, using the pan-macrophage marker F4/80.
For mass spectrometry analysis of glutamate and glutamine, 2×10^6 cell pellets were washed twice in PBS and extracted in 500 μl of 80% methanol (80-20, methanol-water). Upon extraction, samples were centrifuged at 20.000×g for 15 min and the supernatant was dried using a vacuum centrifuge. Twenty-five μl of a 2% methoxyamine hydrochloride solution (20 mg dissolved in 1 ml pyridine) were added to the dried pellet and the tubes were then placed at 37° C. for 90 min. […] The mass spectrometer operated in SIM mode, glutamine and glutamate were determined from the m/z 341.2 and 342.2 respectively. For the quantification we used the Agilent Masshunter Quan tool.

GLUD1 [4] = biological target: T2, GLUD1 (Mus musculus, UniProt P26443); assay: Hindlimb ischemia (femoral artery ligation), R162 by bi-daily gavage; assay type: in vivo; conditions: crural muscles 14 days after ligation; wild type mice; bi-daily R162 vs vehicle
T2 construct: from tissue; host or cells: living C57BL/6 wild-type mice; systemic exposure, read-out in tibialis anterior / crural muscle
T2 sequence (P26443 54-558): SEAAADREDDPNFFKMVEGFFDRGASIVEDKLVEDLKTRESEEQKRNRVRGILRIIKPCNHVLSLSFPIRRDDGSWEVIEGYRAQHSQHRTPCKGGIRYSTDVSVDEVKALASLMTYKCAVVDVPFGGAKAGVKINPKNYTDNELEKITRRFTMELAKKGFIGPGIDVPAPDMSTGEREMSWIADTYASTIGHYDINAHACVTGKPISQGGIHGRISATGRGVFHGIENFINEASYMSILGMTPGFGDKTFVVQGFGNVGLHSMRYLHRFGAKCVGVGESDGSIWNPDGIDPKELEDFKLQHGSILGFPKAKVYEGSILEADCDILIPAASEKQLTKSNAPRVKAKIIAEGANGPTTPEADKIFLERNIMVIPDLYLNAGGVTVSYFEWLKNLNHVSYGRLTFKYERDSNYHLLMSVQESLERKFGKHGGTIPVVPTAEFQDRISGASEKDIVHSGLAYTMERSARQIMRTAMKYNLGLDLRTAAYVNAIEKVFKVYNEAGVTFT
Experimental: h-j: Quantification of the necrotic area (h) and intact differentiated fibers (i) on H&E-stained sections (j) from crural muscles 14 days after ligation. Wild type mice were bi-daily treated with R162, or vehicle as control.
k-l: Quantification (k) and representative images (l) of F4/80^+ area in crural muscles, 14 days after ligation. Wild type mice were bi-daily treated with R162, or vehicle as control.
as §1, §2

GLUD1 [5] = biological target: T2, GLUD1; assay: Cardiotoxin (CTX) muscle injury of tibialis anterior, R162 by bi-daily gavage; assay type: in vivo; conditions: wild type mice
Source text: a-c: Quantification of regenerating fibers (a) and intact differentiated fibers (b) on H&E-stained sections (c) from TA muscles 6 days after CTX injury. Wild type mice were bi-daily treated with R162, or vehicle as control.
d-e: Quantification (d) and representative images (e) of F4/80^+ area in TA muscles, 6 days after CTX injury. Wild type mice were bi-daily treated with R162, or vehicle as control.
f-g: Quantification (f) and representative images (g) of proliferating muscle precursors on sections of TA muscles 1 day after CTX injury, stained for PHH3 and laminin. Wild type mice were bi-daily treated with R162, or vehicle as control.
Mice were anaesthetized with isoflurane and 50 μl of 10 μM CTX was injected in the tibialis anterior (TA) muscle. Muscles were harvested for analysis at different time points post-injury (day 1 and day 6). In vivo GLUD1 inhibition was achieved by bi-daily gavage of R162 (Focus Biomolecules) at 0.6 mg/mouse. Mice were pretreated 1 day before CTX injection or ischemic ligation. Afterwards, mice continued to receive daily treatment until their sacrifice. To inhibit SLC1A5, mice were treated 3 times per day with 500 mM GPNA (Sigma-Aldrich). CTX was injected 1 hour after the first gavage, and mice were sacrificed 24 hours afterwards.
7 μm-thick cryosections were obtained by using a Leica cryostat from frozen muscles collected in optimal cutting temperature compound (OCT). Alternatively, tibialis anterior and calf muscles (gastrocnemius) were fixed in 2% paraformaldehyde, dehydrated, embedded in paraffin, and sectioned at 7 μm thickness. Necrotic and regenerating muscle fibers, were detected by H&E staining as previously described (Takeda et al. 2011, Nature 479:122-126) and analysed by ImageJ software. After deparaffinization and rehydration, muscle sections were permeabilized by a solution containing 1% BSA, 0.2% Triton-X in PBS 30 min at RT and blocked with Donkey serum (Sigma)1 h at RT. […] Whenever sections were stained in fluorescence, ProLong Gold mounting medium with or without DAPI (Invitrogen) was used. […]

GLUD1 [6] = conditions: cited from earlier work

In the case of `N[C@@H](CCC(=O)Nc1ccc([N+](=O)[O-])cc1)C(=O)O` [GPNA, gamma-L-Glutamyl-p-Nitroanilide], the “abundance of proliferating myogenic precursors (PHH3, laminin)” value [1] is reported as “abolished the abundance of proliferating myogenic precursors” and the “block of glutamine uptake” value [2] is reported as 75%.

In the case of `CS(=N)(=O)CC[C@H](N)C(=O)O` (stereo partly drawn) [MSO, L-methionine-SR-sulfoximine], the extracellular glutamine production [3] is reported as “rescued back to the CTRL levels”.

In the case of `C=CCc1ccc2c(c1O)C(=O)c1ccccc1C2=O` [R162, 2-allyl-1-hydroxy-9,10-anthraquinone], the “inflammatory response (F4/80+ area)” value (GLUD1 [4]) is reported as “resolution of the inflammatory response”, the “repair of the necrotic damage (necrotic area and intact differentiated fibers on H&E-stained sections)” value (GLUD1 [4]) is reported as “improved repair of the necrotic damage” and the “increase in the number of PHH3+ cells (proliferating muscle precursors) upon damage” value (GLUD1 [5]; TA muscles 1 day after CTX injury, bi-daily oral gavage of R162 vs vehicle) is reported as 60%. The “quality of the muscle (regenerating fibers and intact differentiated fibers on H&E-stained sections)” value (GLUD1 [5]; TA muscles 6 days after CTX injury, bi-daily oral gavage of R162 0.6 mg/mouse vs vehicle) was “strongly improved the quality of the muscle”, the “inflammation (F4/80+ area)” value (GLUD1 [5]; TA muscles 6 days after CTX injury, bi-daily oral gavage of R162 vs vehicle) was “reduced inflammation” and the “effect on tumor growth” value (GLUD1 [6]; Jin et al. 2015) was “therapeutic effect on tumor growth”. For the same molecule, the safety of use (GLUD1 [6]; mouse models of cancer therapy, Palmieri et al. 2017) was “safely used in mouse models of cancer therapy”.
